Laboratory results from patent publication US8183275B2, “Substituted imidazoles as bombesin receptor subtype-3 modulators” (Merck Sharp & Dohme Corp., priority 2006, dated 2012).
pIC50: −log10 of the molar value.

Biological target: T1, human BRS-3 (Homo sapiens, UniProt P32247)
T1 construct: expressed in transfected cells
T1 sequence (P32247 1-399): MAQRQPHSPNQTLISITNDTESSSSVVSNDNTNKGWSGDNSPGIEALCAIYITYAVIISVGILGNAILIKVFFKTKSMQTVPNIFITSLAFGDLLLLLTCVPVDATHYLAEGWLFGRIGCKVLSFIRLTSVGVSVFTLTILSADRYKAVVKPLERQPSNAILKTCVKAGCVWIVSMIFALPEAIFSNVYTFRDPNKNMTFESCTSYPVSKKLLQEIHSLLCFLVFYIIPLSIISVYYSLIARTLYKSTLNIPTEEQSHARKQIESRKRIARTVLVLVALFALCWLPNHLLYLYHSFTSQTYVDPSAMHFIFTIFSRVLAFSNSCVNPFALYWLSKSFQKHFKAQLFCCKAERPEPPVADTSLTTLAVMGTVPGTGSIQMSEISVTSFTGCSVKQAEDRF
Assay: Bombesin Receptor Subtype 3 (BRS3) binding assay (radioligand filtration)
Conditions: BRS-3 Receptor Binding Activity for Selected Compounds
Protocol: Dissociated cells were collected by centrifuging at 1000 rpm for 10 minutes. Cell pellets were resuspended and homogenized at 4° C. using a Polytron homogenizer (setting 40, 20 stokes) in approximately 10 mL membrane preparation buffer (10 mM Tris pH 7.4, 0.01 mM Pefabloc, 10 μM phosphoramidon and 40 μg/mL Bacitracin) per T175 flask. After centrifugation at 2200 rpm (1000×g) for 10 minutes at 4° C., the supernatant was transferred to a clean centrifuge tube and spun at 18,000 rpm (38,742×g) for 15 minutes. at 4° C. […]
The radioligand, [^3H]-1-{4-[(4,5-difluoro-2-hydroxycarbonylphenyl)phenyl])-2-(4-cyclohexylmethyl-1H-imidazol-2-yl)ethane, was used for binding to receptor membranes generated with BRS3 from other species and was also utilized for the human receptor. […] After incubation for 1-2 hours at room temperature, membrane bound [^3H]-biphenyl was separated from free radiologand by filtering through GF/C filters presoaked in 1% PEI solution. The filters were washed five times with ice-cold washing buffer (50 mM Tris pH 7.4, 10 mM MgCl2, 2.5 mM EDTA and 0.02% Triton X-100). The radioactivity was determined by adding 30 μl of microscintillant/well after each plate was dried at room temperature overnight or placed at 50° C. for 1 hr.
A Packard Top Count was used to read the filter plates. The data in % inhibition of binding was plotted vs. the log molar concentration of receptor ligand (compound). The IC50 was reported as the inflection point of the resulting sigmoidal curve.

pIC50	Structure (SMILES)
7.42	CC(C)(C)Cc1cnc(CCc2ccc(-c3ccccc3C(=O)O)cc2)[nH]1 [Example 1, 4′-{2-[4-(2,2-Dimethylpropyl)-1H-imidazol-2-yl]ethyl}biphenyl-2-carboxylic Acid]
6.93	O=C(O)c1ccccc1-c1ccc(CCc2ncc(CC3CCCC3)[nH]2)cc1 [Example 26]
7.70	O=C(O)c1cc(F)c(F)cc1-c1ccc(CCc2nc(CC3CCCCC3)c[nH]2)cc1 [Example 94]
8.20	CCC(C)(C)Cc1c[nH]c(CCc2ccc(-c3cccc(C)n3)cc2)n1 [Example 110]
7.48	CCC(C)(C)Cc1c[nH]c(CCc2ccc(-n3cccn3)cc2)n1 [Example 205, 1-(4-{2-[4-(2,2-dimethylbutyl)-1H-imidazol-2-yl]ethyl}phenyl)-1H-pyrazole]
8.32	CCC(C)(C)Cc1c[nH]c(CCc2ccc(-c3cccc4cn[nH]c34)cc2)n1 [Example 221]
7.74	CCC(C)(C)Cc1c[nH]c(CCc2ccc(N3CCCC[C@@H]3C(=O)O)cc2)n1 [Example 225, (R)-N-(4-{2-[4-(2,2-Dimethylbutyl)-1H-imidazol-2-yl]ethyl}phenyl)piperidine-2-carboxylic acid]
7.74	CCC(C)(C)Cc1c[nH]c(CCc2ccc(N3CCCc4cn[nH]c43)cc2)n1 [Example 226, 7-(4-{2-[5-(2,2-Dimethylbutyl)-1H-imidazol-2-yl]ethyl}phenyl)-4,5,6,7-tetrahydro-1H-pyrazolo[3,4-b]pyridine]
8.55	CCC(C)(C)Cc1c[nH]c(CCc2ccc(C3CCCCC3C(=O)O)cc2)n1 (stereo not shown) [Example 227, 2-(4-{2-[4-(2,2-Dimethylbutyl)-1H-imidazol-2-yl]ethyl}phenyl)cyclohexanecarboxylic acid]
7.60	CC(C)(Cc1cnc(CCc2ccc(-c3ccc(F)cn3)cc2)[nH]1)C1CC1 [Example 236, 2-(4-{2-[5-(2-Cyclopropyl-2-methylpropyl)-1H-imidazol-2-yl]ethyl}phenyl)-5-fluoropyridine]
7.82	CCC(CF)(CF)Cc1cnc(CCc2ccc(-c3ccc(F)cn3)cc2)[nH]1 [Example 237, 2-(4-{2-[5-(2,2-Bis(fluoromethyl)butyl)-1H-imidazol-2-yl]ethyl}phenyl)-5-fluoro-pyridine]
6.94	CC(C)(C)Cc1cnc(CCc2ccc(-c3ccccn3)cc2)[nH]1 [Example 240, 2-(4-{2-[4-(2,2-Dimethylpropyl)-1H-imidazol-2-yl]ethyl}phenyl)pyridine]
8.28	CCC(C)(C)Cc1c[nH]c(CCc2ccc(-c3ccccc3OCc3nn[nH]n3)cc2)n1 [Example 246, 5-(4′-{2-[4-(2,2-Dimethylbutyl)-1H-imidazol-2-yl]ethyl}biphenyl-2-yloxymethyl)-1H-tetrazole]
